Test results reported in paper PMC10287555, “Camonsertib in DNA damage response-deficient advanced solid tumors: phase 1 trial results” (Nature Medicine, 2023).
Read-outs that look alike come from different tables or passages of the source.

Assay: Plasma pharmacokinetics, cycle 1 day 1 (LC–MS/MS, non-compartmental analysis)
Type: in vivo, human
Conditions: for AUC(0-t) / Cmax / Tmax / AUC(0-inf) / half-life: human, plasma, oral; for Cmax: read-out: Cmax, geometric mean; for Tmax: read-out: Tmax, median; for AUC(0-inf): read-out: AUC0-INF, geometric mean
Method: The plasma levels from cycle 1, day 1 of camonsertib were quantified using a validated liquid chromatography tandem–mass spectrometry (LC–MS/MS) method. […] All PK parameters were calculated using actual sampling times. Mean plasma concentration time profiles at given dose levels and regimens were plotted on semi-logarithmic plots using nominal times.

[1] = Dose 5 mg, Tau 24 hr, cycle 1 day 1
[2] = Dose 10 mg, Tau 24 hr, cycle 1 day 1
[3] = Dose 20 mg, Tau 24 hr, cycle 1 day 1
[4] = Dose 40 mg, Tau 12 hr, cycle 1 day 1
[5] = Dose 40 mg, Tau 24 hr, cycle 1 day 1
[6] = Dose 60 mg, Tau 12 hr, cycle 1 day 1
[7] = Dose 80 mg, Tau 12 hr, cycle 1 day 1
[8] = Dose 80 mg, Tau 24 hr, cycle 1 day 1
[9] = Dose 100 mg, Tau 24 hr, cycle 1 day 1
[10] = Dose 120 mg, Tau 24 hr, cycle 1 day 1
[11] = Dose 160 mg, Tau 24 hr, cycle 1 day 1
[12] = Dose 200 mg, Tau 24 hr, cycle 1 day 1
[13] = 10 mg, Tau 24 hr, cycle 1 day 1
[14] = 20 mg, Tau 24 hr, cycle 1 day 1
[15] = 40 mg, Tau 12 hr, cycle 1 day 1
[16] = 40 mg, Tau 24 hr, cycle 1 day 1
[17] = 60 mg, Tau 12 hr, cycle 1 day 1
[18] = 80 mg, Tau 12 hr, cycle 1 day 1
[19] = 80 mg, Tau 24 hr, cycle 1 day 1
[20] = 100 mg, Tau 24 hr, cycle 1 day 1
[21] = 120 mg, Tau 24 hr, cycle 1 day 1
[22] = 160 mg, Tau 24 hr, cycle 1 day 1
[23] = 200 mg, Tau 24 hr, cycle 1 day 1

For C[C@@H]1COCCN1c1cc([C@]2(O)C[C@H]3CC[C@@H](C2)O3)c2cnn(-c3cc[nH]n3)c2n1 [camonsertib], the “AUC0-t/dose, geometric mean” value [1] was 0.427 µg·h/mL/mg, the “Cmax/dose, geometric mean” value [1] was 0.098 µg/mL/mg and the “AUC0-t/dose, geometric mean” value [2] was 0.567 µg·h/mL/mg. For the same compound, the “Cmax/dose, geometric mean” value [2] was 0.105 µg/mL/mg, the “AUC0-t/dose, geometric mean” value [3] was 0.239 µg·h/mL/mg and the “Cmax/dose, geometric mean” value [3] was 0.04 µg/mL/mg. For the same compound, the “AUC0-t/dose, geometric mean” value [4] was 1.003 µg·h/mL/mg, the “Cmax/dose, geometric mean” value [4] was 0.095 µg/mL/mg and the “AUC0-t/dose, geometric mean” value [5] was 0.329 µg·h/mL/mg. For the same compound, the “Cmax/dose, geometric mean” value [5] was 0.029 µg/mL/mg, the “AUC0-t/dose, geometric mean” value [6] was 0.444 µg·h/mL/mg and the “Cmax/dose, geometric mean” value [6] was 0.055 µg/mL/mg. The “AUC0-t/dose, geometric mean” value [7] was 0.527 µg·h/mL/mg, the “Cmax/dose, geometric mean” value [7] was 0.038 µg/mL/mg and the “AUC0-t/dose, geometric mean” value [8] was 0.254 µg·h/mL/mg. For the same compound, the “Cmax/dose, geometric mean” value [8] was 0.071 µg/mL/mg, the “AUC0-t/dose, geometric mean” value [9] was 0.3 µg·h/mL/mg and the “Cmax/dose, geometric mean” value [9] was 0.052 µg/mL/mg. For the same compound, the “AUC0-t/dose, geometric mean” value [10] was 0.246 µg·h/mL/mg, the “Cmax/dose, geometric mean” value [10] was 0.044 µg/mL/mg and the “AUC0-t/dose, geometric mean” value [11] was 0.256 µg·h/mL/mg. For the same compound, the “Cmax/dose, geometric mean” value [11] was 0.046 µg/mL/mg, the “AUC0-t/dose, geometric mean” value [12] was 0.273 µg·h/mL/mg and the “Cmax/dose, geometric mean” value [12] was 0.047 µg/mL/mg. For the same compound, the Accumulation (after repeated dosing) was “no accumulation”, the “Increases in Cmax and AUC with dose” value (dose range 5–200 mg QD) was “linear” and the AUC(0-t) (5 mg, Tau 24 hr, cycle 1 day 1, read-out: AUC0-12, geometric mean) was 1800 ng·h/mL. For the same compound, the AUC(0-t) (5 mg, Tau 24 hr, cycle 1 day 1, read-out: AUC0-t, geometric mean) was 2100 ng·h/mL, the Cmax (5 mg, Tau 24 hr, cycle 1 day 1) was 500 ng/mL and the Tmax (5 mg, Tau 24 hr, cycle 1 day 1) was 1.17 h. The AUC(0-t) (10 mg, Tau 24 hr, cycle 1 day 1, read-out: AUC0-12, geometric mean) was 4400 ng·h/mL, the AUC(0-t) (10 mg, Tau 24 hr, cycle 1 day 1, read-out: AUC0-t, geometric mean) was 5700 ng·h/mL and the Cmax [13] was 1100 ng/mL. The Tmax [13] was 1 h, the AUC(0-t) (20 mg, Tau 24 hr, cycle 1 day 1, read-out: AUC0-12, geometric mean) was 2800 ng·h/mL and the AUC(0-t) (20 mg, Tau 24 hr, cycle 1 day 1, read-out: AUC0-t, geometric mean) was 4800 ng·h/mL. The Cmax [14] was 800 ng/mL, the Tmax [14] was 10.7 h and the AUC(0-t) (40 mg, Tau 12 hr, cycle 1 day 1, read-out: AUC0-12, geometric mean) was 23400 ng·h/mL. For the same compound, the AUC(0-t) (40 mg, Tau 12 hr, cycle 1 day 1, read-out: AUC0-t, geometric mean) was 40100 ng·h/mL, the Cmax [15] was 3800 ng/mL and the Tmax [15] was 1.96 h. It also gave an AUC(0-t) (40 mg, Tau 24 hr, cycle 1 day 1, read-out: AUC0-12, geometric mean) of 4700 ng·h/mL, an AUC(0-t) (40 mg, Tau 24 hr, cycle 1 day 1, read-out: AUC0-t, geometric mean) of 13200 ng·h/mL and a Cmax [16] of 1200 ng/mL. It also gave a Tmax [16] of 22.1 h, an AUC(0-t) (60 mg, Tau 12 hr, cycle 1 day 1, read-out: AUC0-12, geometric mean) of 16900 ng·h/mL and an AUC(0-t) (60 mg, Tau 12 hr, cycle 1 day 1, read-out: AUC0-t, geometric mean) of 26600 ng·h/mL. The Cmax [17] was 3300 ng/mL, the Tmax [17] was 1.55 h and the AUC(0-t) (80 mg, Tau 12 hr, cycle 1 day 1, read-out: AUC0-12, geometric mean) was 21400 ng·h/mL. The AUC(0-t) (80 mg, Tau 12 hr, cycle 1 day 1, read-out: AUC0-t, geometric mean) was 42100 ng·h/mL, the Cmax [18] was 3000 ng/mL and the Tmax [18] was 2.17 h. For the same compound, the AUC(0-t) (80 mg, Tau 24 hr, cycle 1 day 1, read-out: AUC0-12, geometric mean) was 18700 ng·h/mL, the AUC(0-t) (80 mg, Tau 24 hr, cycle 1 day 1, read-out: AUC0-t, geometric mean) was 20300 ng·h/mL and the Cmax [19] was 5700 ng/mL. It also gave a Tmax [19] of 1 h, an AUC(0-t) (100 mg, Tau 24 hr, cycle 1 day 1, read-out: AUC0-12, geometric mean) of 24800 ng·h/mL and an AUC(0-t) (100 mg, Tau 24 hr, cycle 1 day 1, read-out: AUC0-t, geometric mean) of 30200 ng·h/mL. The Cmax [20] was 5200 ng/mL, the Tmax [20] was 1.54 h and the AUC(0-t) (120 mg, Tau 24 hr, cycle 1 day 1, read-out: AUC0-12, geometric mean) was 23900 ng·h/mL. It also gave an AUC(0-t) (120 mg, Tau 24 hr, cycle 1 day 1, read-out: AUC0-t, geometric mean) of 29500 ng·h/mL, a Cmax [21] of 5300 ng/mL and a Tmax [21] of 2.03 h. It also gave an AUC(0-t) (160 mg, Tau 24 hr, cycle 1 day 1, read-out: AUC0-12, geometric mean) of 34800 ng·h/mL, an AUC(0-t) (160 mg, Tau 24 hr, cycle 1 day 1, read-out: AUC0-t, geometric mean) of 41000 ng·h/mL and a Cmax [22] of 7300 ng/mL. The Tmax [22] was 1.21 h, the AUC(0-t) (200 mg, Tau 24 hr, cycle 1 day 1, read-out: AUC0-12, geometric mean) was 44700 ng·h/mL and the AUC(0-t) (200 mg, Tau 24 hr, cycle 1 day 1, read-out: AUC0-t, geometric mean) was 54600 ng·h/mL. For the same compound, the Cmax [23] was 9500 ng/mL, the Tmax [23] was 1 h and the AUC(0-inf) [1] was 2300 ng·h/mL. The half-life (Dose 5 mg, Tau 24 hr, cycle 1 day 1, read-out: Half-life, geometric mean (converted)) was 5.87 h, the AUC(0-inf) [2] was 6600 ng·h/mL and the half-life (Dose 10 mg, Tau 24 hr, cycle 1 day 1, read-out: Half-life, geometric mean (converted)) was 8.5 h. It also gave an AUC(0-inf) [3] of 3100 ng·h/mL, a half-life (Dose 20 mg, Tau 24 hr, cycle 1 day 1, read-out: Half-life, geometric mean (converted)) of 4.18 h and an AUC(0-inf) [4] of 153000 ng·h/mL. For the same compound, the AUC(0-inf) [6] was 66100 ng·h/mL, the AUC(0-inf) [8] was 21000 ng·h/mL and the half-life (Dose 80 mg, Tau 24 hr, cycle 1 day 1, read-out: Half-life, geometric mean (converted)) was 4.08 h. The AUC(0-inf) [9] was 32300 ng·h/mL, the half-life (Dose 100 mg, Tau 24 hr, cycle 1 day 1, read-out: Half-life, geometric mean (converted)) was 5.67 h and the AUC(0-inf) [10] was 31300 ng·h/mL. It also gave a half-life (Dose 120 mg, Tau 24 hr, cycle 1 day 1, read-out: Half-life, geometric mean (converted)) of 6.21 h, an AUC(0-inf) [11] of 45900 ng·h/mL and a half-life (Dose 160 mg, Tau 24 hr, cycle 1 day 1, read-out: Half-life, geometric mean (converted)) of 5.97 h. It also gave an AUC(0-inf) [12] of 58900 ng·h/mL, a half-life (Dose 200 mg, Tau 24 hr, cycle 1 day 1, read-out: Half-life, geometric mean (converted)) of 6.31 h and a half-life (across all QD dose levels, read-out: Median half-life (converted)) of 5.8 h. For the same compound, the “Doses at which plasma exposures achieved predicted efficacious exposures” value (in vivo) was greater than 100 mg QD and the PK variability (intra-patient and inter-patient) was “low intra-patient and inter-patient variability”.
